Each compound was assayed against T1, GID4 (Uniprot ID: Q81VV7, residues 124-289) (Homo sapiens, UniProt Q8IVV7) (assay: GID4 competitive binding assay (AlphaScreen, GID4/degron peptide PGLW)). Settings: 24 nM GID4, 48 nM biotinylated degron peptide PGLW, 4° C., read-out: IC50 (Inhibition of GID4/Degron binding by test compounds).
T1 construct: GID4 (Uniprot ID: Q81VV7, residues 124-289)
T1 sequence (Q8IVV7 124-289): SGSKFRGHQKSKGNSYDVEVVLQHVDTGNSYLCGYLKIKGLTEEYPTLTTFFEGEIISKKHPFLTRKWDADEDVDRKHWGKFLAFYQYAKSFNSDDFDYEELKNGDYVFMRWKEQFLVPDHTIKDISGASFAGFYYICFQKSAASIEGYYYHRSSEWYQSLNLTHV
Description: GID4 Competitive Binding Assay
GID4 binding affinity of compounds disclosed herein was measured by monitoring the interaction of GID4 with its degron peptide (PGLW) in the presence of the test compounds. A truncated version of GID4 (Uniprot ID: Q81VV7, residues 124-289) with a 6*His at its C-terminus was used in this assay. Tetrapeptide, PGLW, was synthesized and tagged with an additional lysine labeled with biotin at its sidechain.
GID4 competitive binding assays were performed in a 384-well plate at 4° C. in a 20 μL reaction volume. Briefly, 24 nM GID4 (final concentration) proteins were pre-incubated with 48 nM biotinylated degron peptide (final concentration) in an assay buffer containing 20 mM HEPES, pH 7.5, 100 mM NaCl, 1 mM DTT, 0.1% Tween-20, and 0.05% BSA in the presence of the test compound in 2% DMSO (final concentration) at various concentrations for 2 h. 5 ug/ml Streptavidin ALphaScreen donor beads and 5 ug/ml nickel chelate (Ni-NTA) ALphaScreen acceptor beads (PerkinElmer, 6760619C) (final concentrations) were then added to the mixture. After an incubation of 1 h at 4° C., the fluorescent signals were obtained on the EnVision® 2105 Multilabel Plate Reader (PerkinElmer).
Raw ALphaScreen data were converted to a percentage of inhibition (relative to DMSO) using the following equations: […]
For a given test compound concentration X:
Signal (X)=Signal (GID4 & peptide & compound)−Signal (GID4 & buffer & compound)
Percentage of inhibition at concentration X=[1−Signal(X)/Signal (DMSO)]*100% b)
The IC50 values were determined by nonlinear regression of plots of [inhibitor] vs. percentage of inhibition with variable slope.
Table 3 summarizes the inhibition of binding between GID4 and degron peptide with compounds of the present disclosure. Compounds were ranked into bins as follows for IC50: A indicates <500 nM; B indicates 500 nM-5000 nM; C indicates >5000 nM.

How did the IC50 turn out when `CC(C)c1cc(N2CCCC(n3cnc4ccccc43)C2)nc(N)n1` (stereo not drawn) [Compound 256, 4-(3-(1H-benzo[d]imidazol-1-yl)piperidin-1-yl)-6-isopropylpyrimidin-2-amine] was run?
The IC50 was less than 500 nM.

`Nc1cc(N2CCOC(c3ccccc3Br)C2)nc(N)n1` (racemic) [Compound 145, (R/S)-6-(2-(2-bromophenyl)morpholino)pyrimidine-2,4-diamine] was tested. Which IC50 did it give?
The IC50 was 500 to 5000 nM.

How did the IC50 turn out when `Nc1cc(N2CCOC(c3cnc4ccccn34)C2)nc(N)n1` (racemic) [Compound 136, (R/S)-6-(2-(imidazo[1,2-a]pyridin-3-yl)morpholino)pyrimidine-2,4-diamine] was run?
Its IC50 is greater than 5000 nM.

How did the IC50 turn out when `CC(C)c1cc(N2CCNC(c3ccc(O)cc3Br)C2)nc(N)n1` (stereo not drawn) [Compound 164, 4-(4-(2-amino-6-isopropylpyrimidin-4-yl)piperazin-2-yl)-3-bromophenol] was run?
The IC50 was less than 500 nM.

`CC(C)c1cc(N2CCCC(n3c(=O)[nH]c4ccccc43)C2)nc(N)n1` (stereo not drawn) [Compound 252, 1-(1-(2-amino-6-isopropylpyrimidin-4-yl)piperidin-3-yl)-1,3-dihydro-2H-benzo[d]imidazol-2-one] was tested. Which IC50 did it give?
Its IC50 is 500 to 5000 nM.

`Nc1cc(N2CC[C@H](O)[C@@H](c3ccccc3Br)C2)nc(N)n1` (relative stereo) [Compound 222, (3,4-trans)-3-(2-bromophenyl)-1-(2,6-diaminopyrimidin-4-yl)piperidin-4-ol] was tested. Which IC50 did it give?
The IC50 was 500 to 5000 nM.

For `CNc1cc(N2CCCC(c3nnc4ccccn34)C2)nc(N)n1` (stereo not drawn) [Compound 180, 6-(3-([1,2,4]triazolo[4,3-a]pyridin-3-yl)piperidin-1-yl)-N4-methylpyrimidine-2,4-diamine], which IC50 is on record?
The IC50 was greater than 5000 nM.

For `CC(C)c1cc(N2C=C(c3ccccc3Br)CCC2)nc(N)n1` [Compound 227, 4-(5-(2-bromophenyl)-3,4-dihydropyridin-1(2H)-yl)-6-isopropylpyrimidin-2-amine], which IC50 is on record?
The IC50 was 500 to 5000 nM.

How did the IC50 turn out when `CN(C)CCCNC(=O)c1cnc(-c2cc(O)c3ncccc3c2)nc1` [Compound 282, N-(3-(dimethylamino)propyl)-2-(8-hydroxyquinolin-6-yl)pyrimidine-5-carboxamide] was run?
Its IC50 is less than 500 nM.

Which IC50 does the source give for `CC(C)c1cc(N2CCN[C@@H](c3cnc4ccccn34)C2)c2nc[nH]c2n1` (stereo in doubt) [Compound 368, (R/S)-7-(3-(imidazo[1,2-a]pyridin-3-yl)piperazin-1-yl)-5-isopropyl-3H-imidazo[4,5-b]pyridine] here?
The IC50 was 500 to 5000 nM.

With `Nc1cc(N2CCO[C@@](CO)(c3ccccc3Br)C2)nc(N)n1` (stereo in doubt) [Compound 37, (S/R)-(2-(2-bromophenyl)-4-(2,6-diaminopyrimidin-4-yl)morpholin-2-yl)methanol] as the compound, how does the IC50 read?
Its IC50 is less than 500 nM.

Which IC50 does the source give for `CN1CCC(NC(=O)c2cccc(-c3ccc4ccnc(N)c4c3)c2)CC1` [Compound 345, 3-(1-aminoisoquinolin-7-yl)-N-(1-methylpiperidin-4-yl)benzamide] here?
Its IC50 is 500 to 5000 nM.

For `CC(C)c1cc(N2CCCC(O)(c3ccccc3Br)C2)nc(N)n1` (stereo not drawn) [Compound 236, 1-(2-amino-6-isopropylpyrimidin-4-yl)-3-(2-bromophenyl)piperidin-3-ol], which IC50 is on record?
The IC50 was 500 to 5000 nM.

With `Nc1cc(N2CCNC(c3ccccc3Br)C2)nc(N)n1` (stereo not drawn) [Compound 172, 6-(3-(2-bromophenyl)piperazin-1-yl)pyrimidine-2,4-diamine] as the compound, how does the IC50 read?
Its IC50 is less than 500 nM.

Which IC50 does the source give for `Brc1ccccc1C1CN(c2cc(NC3CC3)ncn2)CCN1` (stereo not drawn) [Compound 79, 6-(3-(2-bromophenyl)piperazin-1-yl)-N-cyclopropylpyrimidin-4-amine] here?
Its IC50 is greater than 5000 nM.

How did the IC50 turn out when `Cn1nccc1-c1cc(N2CC3CC(C2)N3)nc2c(-c3cc[nH]n3)nccc12` [Compound 365, 3-(4-(1-methyl-1H-pyrazol-5-yl)-8-(1H-pyrazol-3-yl)-1,7-naphthyridin-2-yl)-3,6-diazabicyclo[3.1.1]heptane] was run?
The IC50 was 500 to 5000 nM.

How did the IC50 turn out when `CNc1cc(N2CCNC(c3cnc4ccccn34)C2)nc(N)n1` (stereo not drawn) [Compound 92, 6-(3-(imidazo[1,2-a]pyridin-3-yl)piperazin-1-yl)-N4-methylpyrimidine-2,4-diamine] was run?
The IC50 was 500 to 5000 nM.

Which IC50 does the source give for `CN1CCN(C(=O)c2ccc(Br)c(C3CN(c4cc(N)nc(N)n4)CCN3)c2)CC1` (single isomer, unassigned) [Compound 15, (R/S)-(4-bromo-3-(4-(2,6-diaminopyrimidin-4-yl)piperazin-2-yl)phenyl)(4-methylpiperazin-1-yl)methanone] here?
The IC50 was less than 500 nM.

With `CN(C)[C@H]1C[C@H](NC(=O)c2ccc(-c3cc(O)c4ncccc4c3)cc2)C1` [Compound 280, N-(trans-3-(dimethylamino)cyclobutyl)-4-(8-hydroxyquinolin-6-yl)benzamide] as the compound, how does the IC50 read?
Its IC50 is less than 500 nM.

`Cc1c(-c2ccc(Br)c(C3CN(c4cc(C(C)C)nc(N)n4)CCN3)c2)cnn1C` (single isomer, unassigned) [Compound 7, R or S-4-(3-(2-bromo-5-(1,5-dimethyl-1H-pyrazol-4-yl)phenyl)piperazin-1-yl)-6-isopropylpyrimidin-2-amine] was tested. Which IC50 did it give?
The IC50 was 500 to 5000 nM.

For `Nc1cc(N2CCCC(c3n[nH]c4ccccc34)C2)nc(N)n1` (stereo not drawn) [Compound 246, 6-(3-(1H-indazol-3-yl)piperidin-1-yl)pyrimidine-2,4-diamine], which IC50 is on record?
Its IC50 is 500 to 5000 nM.

With `Nc1cc(N2CCN(CCO)[C@@H](c3ccccc3Br)C2)nc(N)n1` (stereo in doubt) [Compound 66, (S/R)-2-(2-(2-bromophenyl)-4-(2,6-diaminopyrimidin-4-yl)piperazin-1-yl)ethan-1-ol] as the compound, how does the IC50 read?
Its IC50 is greater than 5000 nM.

Which IC50 does the source give for `CN(C)CCNC(=O)c1ccc(-c2cc(O)c3ncccc3c2)cc1` [Compound 299, N-(2-(dimethylamino)ethyl)-4-(8-hydroxyquinolin-6-yl)benzamide] here?
Its IC50 is less than 500 nM.

How did the IC50 turn out when `CN1CCCC(CNC(=O)c2ccc(-c3cc(O)c4ncccc4c3)cc2)C1` (stereo not drawn) [Compound 290, 4-(8-hydroxyquinolin-6-yl)-N-((1-methylpiperidin-3-yl)methyl)benzamide] was run?
The IC50 was less than 500 nM.

`CN(C)CCCNC(=O)c1cccc(-c2ccc3ccnc(N)c3c2)c1` [Compound 348, 3-(1-aminoisoquinolin-7-yl)-N-(3-(dimethylamino)propyl)benzamide] was tested. Which IC50 did it give?
Its IC50 is greater than 5000 nM.

With `CC(C)c1cc(N2CCCNC(c3ccccc3Br)C2)nc(N)n1` (stereo not drawn) [Compound 220, 4-(3-(2-bromophenyl)-1,4-diazepan-1-yl)-6-isopropylpyrimidin-2-amine] as the compound, how does the IC50 read?
Its IC50 is 500 to 5000 nM.

Which IC50 does the source give for `CN(C)[C@H]1CC[C@H](NC(=O)c2ccc(-c3cc(O)c4ncccc4c3)cc2)CC1` [Compound 287, N-(trans-4-(dimethylamino)cyclohexyl)-4-(8-hydroxyquinolin-6-yl)benzamide] here?
Its IC50 is less than 500 nM.

How did the IC50 turn out when `CC(C)c1cc(N2CCNC(c3cc(F)c(F)cc3Br)C2)nc(N)n1` (stereo not drawn) [Compound 170, 4-(3-(2-bromo-4,5-difluorophenyl)piperazin-1-yl)-6-isopropylpyrimidin-2-amine] was run?
The IC50 was 500 to 5000 nM.

Which IC50 does the source give for `Nc1cc(N2CCCC(n3ncc4ccccc43)C2)nc(N)n1` (stereo not drawn) [Compound 89, 6-(3-(1H-indazol-1-yl)piperidin-1-yl)pyrimidine-2,4-diamine] here?
The IC50 was greater than 5000 nM.

`CNc1cc(N2CCC[C@@H](c3ccccc3Br)C2)nc(N)n1` (stereo in doubt) [Compound 87, (S/R)-6-(3-(2-bromophenyl)piperidin-1-yl)-N4-methylpyrimidine-2,4-diamine] was tested. Which IC50 did it give?
Its IC50 is less than 500 nM.

With `Nc1nc2c(c(N3CCCC(c4ccn[nH]4)C3)n1)COCC2` (stereo not drawn) [Compound 196, 4-(3-(1H-pyrazol-5-yl)piperidin-1-yl)-7,8-dihydro-5H-pyrano[4,3-d]pyrimidin-2-amine] as the compound, how does the IC50 read?
Its IC50 is greater than 5000 nM.

How did the IC50 turn out when `Nc1nc(C2CCC2)cc(N2CCCC(c3ccn[nH]3)C2)n1` (stereo not drawn) [Compound 212, 4-(3-(1H-pyrazol-5-yl)piperidin-1-yl)-6-cyclobutylpyrimidin-2-amine] was run?
Its IC50 is greater than 5000 nM.

For `Nc1nc(N2CCCC(c3ccn[nH]3)C2)c2[nH]ccc2n1` (stereo not drawn) [Compound 206, 4-(3-(1H-pyrazol-5-yl)piperidin-1-yl)-5H-pyrrolo[3,2-d]pyrimidin-2-amine], which IC50 is on record?
Its IC50 is greater than 5000 nM.

With `Nc1nc2c(c(N3CCCC(c4ccn[nH]4)C3)n1)CSCC2` (stereo not drawn) [Compound 208, 4-(3-(1H-pyrazol-5-yl)piperidin-1-yl)-7,8-dihydro-5H-thiopyrano[4,3-d]pyrimidin-2-amine] as the compound, how does the IC50 read?
Its IC50 is greater than 5000 nM.

`CN(C)CCCNC(=O)c1c(Cl)cc(-c2cc(O)c3ncccc3c2)cc1Cl` [Compound 318, 2,6-dichloro-N-(3-(dimethylamino)propyl)-4-(8-hydroxyquinolin-6-yl)benzamide] was tested. Which IC50 did it give?
Its IC50 is less than 500 nM.

`Cc1cc(N2CCCC(c3cnc4ccccn34)C2)nc(N)n1` (stereo not drawn) [Compound 147, 4-(3-(imidazo[1,2-a]pyridin-3-yl)piperidin-1-yl)-6-methylpyrimidin-2-amine] was tested. Which IC50 did it give?
Its IC50 is 500 to 5000 nM.

Reference: patent US20240132464A1, “HETEROCYCLIC COMPOUNDS AS E3 LIGASE INHIBITORS” (Accutar Biotechnology Inc., priority 2022, published 2024)
